Measured values as given in US20240287138A1, “CYCLIC PEPTIDES FOR INHIBITING TNF RECEPTOR 1 ACTIVITY” (Merck Sharp & Dohme LLC, priority 2023, published 2024).
Where two headings read alike, the source gives them in different places. Numbered stars: 1 amine (or outer) side, 2 acyl side, 3 side chain; on linkers, the order of the positions; unused ones are H or OH. Square brackets hold non-standard residues; d marks the D form. Peptide text beside a SMILES is read from it. * marks the point of attachment. Ala(2-carboxypyrimidin-5-yl) = N[C@@H](Cc1cnc(C(=O)O)nc1)C(=O)O; Trp(βS-Me,7-OMe) = COc1cccc2c([C@H](C)[C@H](N)C(=O)O)c[nH]c12; dPro(trans-4-NMe3+) = C[N+](C)(C)[C@@H]1CN[C@@H](C(=O)O)C1; X51 = CCC[C@@H](c1c[nH]c2ccccc12)[C@H](N[*:1])C(=O)[*:2]; Phe(4-SO2NH2) = N[C@@H](Cc1ccc(S(N)(=O)=O)cc1)C(=O)O; Ala(indazol-1-yl) = N[C@@H](Cn1ncc2ccccc21)C(=O)O; Trp(7-CN) = N#Cc1cccc2c(C[C@H](N)C(=O)O)c[nH]c12; Trp(7-Cl) = N[C@@H](Cc1c[nH]c2c(Cl)cccc12)C(=O)O; Ala(pyrimidin-5-yl) = N[C@@H](Cc1cncnc1)C(=O)O; Phe(3-CONH2) = NC(=O)c1cccc(C[C@H](N)C(=O)O)c1; Phe(4-CONH2) = NC(=O)c1ccc(C[C@H](N)C(=O)O)cc1; Phe(4-COOH) = N[C@@H](Cc1ccc(C(=O)O)cc1)C(=O)O; X64 = O=C([C@H](Cc1n[nH]c2ncccc12)N[*:1])[*:2]; Trp(7-aza) = N[C@@H](Cc1c[nH]c2ncccc12)C(=O)O; X60 = NC(=O)[C@H](O)[C@H](N[*:1])C(=O)[*:2]; X63 = O=C([C@@H]1CC[C@H](O)CN1[*:1])[*:2]; dPro(4S-NH2) = N[C@@H]1CN[C@@H](C(=O)O)C1; Pip(5R-OH) = O=C(O)[C@@H]1CC[C@@H](O)CN1; X1 = O=C([C@@H]1CC[C@H](N[*:1])C1)[*:2]; 4Pal = N[C@@H](Cc1ccncc1)C(=O)O; dHyp = O=C(O)[C@H]1C[C@H](O)CN1; αMeS = C[C@](N)(CO)C(=O)O; Carboxymethyl = O=C(O)C*; Nle = CCCC[C@H](N)C(=O)O; Sar = CNCC(=O)O

How the values were obtained:
[1] = molecular target: T1, TNFα-induced NF-κB signal transduction pathway (TNFR1 signaling) in THP-1 cells (Homo sapiens, UniProt P19438); test: THP-1 Lucia NF-κB reporter cell assay, inhibition of TNFα-induced NF-κB signaling; assay type: cell-based; details: THP-1 NF-κB Lucia reporter cells, 10 ng/mL TNFα, 16-18 h, secreted luciferase, read-out: THP-1 IC50
T1 sequence (P19438 30-455): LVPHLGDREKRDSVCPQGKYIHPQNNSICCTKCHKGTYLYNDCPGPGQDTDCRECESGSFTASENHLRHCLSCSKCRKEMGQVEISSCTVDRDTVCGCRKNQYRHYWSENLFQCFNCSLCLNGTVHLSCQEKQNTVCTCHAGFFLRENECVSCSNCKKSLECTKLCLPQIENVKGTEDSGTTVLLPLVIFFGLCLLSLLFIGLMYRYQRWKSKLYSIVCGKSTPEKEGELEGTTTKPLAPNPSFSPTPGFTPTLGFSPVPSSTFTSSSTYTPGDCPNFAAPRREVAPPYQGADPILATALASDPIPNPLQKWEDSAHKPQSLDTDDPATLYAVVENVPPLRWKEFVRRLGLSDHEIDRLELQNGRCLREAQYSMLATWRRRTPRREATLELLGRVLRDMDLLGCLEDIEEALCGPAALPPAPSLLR
Procedure, shortened: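 THP-1 Lucia NF-κB cells, 20k/well, no selection antibiotics; peptide pre-inc 1 h 37 °C; + recombinant human TNFα 10 ng/mL final; o.n.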

[2] = molecular target: T2, human soluble TNFR1 (sTNFR1) (Homo sapiens, UniProt P19438); test: Human sTNFR1-peptide displacement assay (LanthaScreen Eu TR-FRET binding assay)
T2 construct: made in house; host or cells: Sf21 (baculovirus)
T2 sequence (P19438 with tags, fused parts or gaps): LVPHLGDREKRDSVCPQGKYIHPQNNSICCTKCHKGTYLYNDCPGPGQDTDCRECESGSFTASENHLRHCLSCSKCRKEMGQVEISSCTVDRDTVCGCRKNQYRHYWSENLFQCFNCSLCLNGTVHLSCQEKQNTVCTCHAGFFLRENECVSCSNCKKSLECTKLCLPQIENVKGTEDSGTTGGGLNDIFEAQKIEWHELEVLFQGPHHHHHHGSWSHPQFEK
Procedure, shortened: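 Readout is the 665/615 nm TR-FRET ratio (Eu anti-His donor, streptavidin-Alexa647 acceptor), normalized to DMSO and saturating displacer, fit by Morrison-based five-parameter logistic for Kd^app. His-tagged sTNFR1 (1-211) prebound to 100 nM biotinylated peptide SEQ ID NO.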

[3] = displacement of biotinylated peptide SEQ ID NO. 1 from sTNFR1, 20 point titration, 5-parameter fit based on Morrison equation (tight binding), read-out: TR-FRET Kd^app

Structure (SMILES) | IC50 [1] [nM] | Kd [2] [nM] | Kd [2, 3] [nM] | IC50 ([1]; listed as 77) [nM]
CCCC[C@@H]1NC(=O)[C@@H]2CC[C@@H](C2)NC(=O)[C@H]([C@@H](CCC)c2c[nH]c3ccccc23)NC(=O)CN(C)C(=O)[C@H](Cc2ccc(C(=O)O)cc2)NC(=O)[C@H](Cc2ccc(C(N)=O)cc2)NC(=O)[C@](C)(CO)NC(=O)[C@H](Cc2c[nH]c3c(Cl)cccc23)NC(=O)[C@H](Cc2ccc(C(=O)O)cc2)NC(=O)[C@H](CC(N)=O)NC(=O)[C@H]2C[C@H](O)CN2C(=O)[C@H](Cc2c[nH]c3ccccc23)NC(=O)[C@@H]2CC[C@@H](O)CN2C(=O)[C@H](Cc2ccncc2)NC1=O [SEQ ID NO. 27] (cyclo([4Pal][Pip(5R-OH)]W[dHyp]N[Phe(4-COOH)][Trp(7-Cl)][αMeS][Phe(4-CONH2)][Phe(4-COOH)][Sar][X51][X1][Nle])) | 0.5 | 0.1 |  | 
CCCC[C@@H]1NC(=O)[C@@H]2CC[C@@H](C2)NC(=O)[C@H]([C@@H](C)c2c[nH]c3c(OC)cccc23)NC(=O)CN(C)C(=O)[C@H](Cc2ccc(C(=O)O)cc2)NC(=O)[C@H](Cc2ccc(S(N)(=O)=O)cc2)NC(=O)[C@](C)(CO)NC(=O)[C@H](Cc2c[nH]c3c(C#N)cccc23)NC(=O)[C@H](Cc2ccncc2)NC(=O)[C@H](CC(N)=O)NC(=O)[C@H]2C[C@H](OCC(=O)O)CN2C(=O)[C@H](Cc2c[nH]c3ncccc23)NC(=O)[C@@H]2CC[C@@H](O)CN2C(=O)[C@H](Cc2ccncc2)NC1=O [SEQ ID NO. 31] (cyclo([4Pal][Trp(7-CN)][αMeS][Phe(4-SO2NH2)][Phe(4-COOH)][Sar][Trp(βS-Me,7-OMe)][X1][Nle][4Pal][Pip(5R-OH)][Trp(7-aza)][dHyp](Carboxymethyl)N)) | 0.4 |  | 0.04 | 
CCCC[C@@H]1NC(=O)[C@@H]2CC[C@@H](C2)NC(=O)[C@H]([C@@H](C)c2c[nH]c3c(OC)cccc23)NC(=O)CN(C)C(=O)[C@H](Cc2ccc(OCC(=O)O)cc2)NC(=O)[C@H](Cc2ccc(S(N)(=O)=O)cc2)NC(=O)[C@](C)(CO)NC(=O)[C@H](Cc2c[nH]c3c(C#N)cccc23)NC(=O)[C@H](Cc2ccc(OCC(=O)O)cc2)NC(=O)[C@H](CC(N)=O)NC(=O)[C@H]2C[C@H](N)CN2C(=O)[C@H](Cc2c[nH]c3ccccc23)NC(=O)[C@@H]2CC[C@@H](O)CN2C(=O)[C@H](Cc2cncnc2)NC1=O [SEQ ID NO. 37] (cyclo(NY(Carboxymethyl)[Trp(7-CN)][αMeS][Phe(4-SO2NH2)]Y(Carboxymethyl)[Sar][Trp(βS-Me,7-OMe)][X1][Nle][Ala(pyrimidin-5-yl)][Pip(5R-OH)]W[dPro(4S-NH2)])) | 0.6 | 0.09 |  | 
CCCC[C@@H]1NC(=O)[C@@H]2CC[C@@H](C2)NC(=O)[C@H]([C@@H](C)c2c[nH]c3c(OC)cccc23)NC(=O)CN(C)C(=O)[C@H](Cc2ccc(OCC(=O)O)cc2)NC(=O)[C@H](Cc2ccc(S(N)(=O)=O)cc2)NC(=O)[C@](C)(CO)NC(=O)[C@H](Cc2c[nH]c3c(C#N)cccc23)NC(=O)[C@H](Cc2ccc(OCC(=O)O)cc2)NC(=O)[C@H](CC(N)=O)NC(=O)[C@H]2C[C@H]([N+](C)(C)C)CN2C(=O)[C@H](Cn2ncc3ccccc32)NC(=O)[C@@H]2CC[C@@H](O)CN2C(=O)[C@H](Cc2cncnc2)NC1=O [SEQ ID NO. 43] (cyclo(NY(Carboxymethyl)[Trp(7-CN)][αMeS][Phe(4-SO2NH2)]Y(Carboxymethyl)[Sar][Trp(βS-Me,7-OMe)][X1][Nle][Ala(pyrimidin-5-yl)][Pip(5R-OH)][Ala(indazol-1-yl)][dPro(trans-4-NMe3+)])) | 0.6 | 0.09 |  | 
CCCC[C@@H]1NC(=O)[C@@H]2CC[C@@H](C2)NC(=O)[C@H]([C@@H](C)c2c[nH]c3c(OC)cccc23)NC(=O)CN(C)C(=O)[C@H](Cc2cccc(C(N)=O)c2)NC(=O)[C@H](Cc2ccc(C(N)=O)cc2)NC(=O)[C@](C)(CO)NC(=O)[C@H](Cc2c[nH]c3c(Cl)cccc23)NC(=O)[C@H](Cc2ccncc2)NC(=O)[C@H](CC(N)=O)NC(=O)[C@H]2C[C@H](O)CN2C(=O)[C@H](Cc2c[nH]c3ccccc23)NC(=O)[C@@H]2CC[C@H](O)CN2C(=O)[C@H](Cc2ccncc2)NC1=O [SEQ ID NO. 67] (cyclo([4Pal][Trp(7-Cl)][αMeS][Phe(4-CONH2)][Phe(3-CONH2)][Sar][Trp(βS-Me,7-OMe)][X1][Nle][4Pal][X63]W[dHyp]N)) | 0.4 | 0.2 |  | 
CCCC[C@@H]1NC(=O)[C@@H]2CC[C@@H](C2)NC(=O)[C@H]([C@@H](C)c2c[nH]c3c(OC)cccc23)NC(=O)CN(C)C(=O)[C@H](Cc2ccc(C(=O)O)cc2)NC(=O)[C@H](Cc2ccc(C(N)=O)cc2)NC(=O)[C@](C)(CO)NC(=O)[C@H](Cc2c[nH]c3c(C#N)cccc23)NC(=O)[C@H](Cc2ccc(C(=O)O)cc2)NC(=O)[C@H](CC(N)=O)NC(=O)[C@H]2C[C@H](OCC(=O)O)CN2C(=O)[C@H](Cc2c[nH]c3ncccc23)NC(=O)[C@@H]2CC[C@@H](O)CN2C(=O)[C@H](Cc2ccncc2)NC1=O [SEQ ID NO. 77] (cyclo([4Pal][Pip(5R-OH)][Trp(7-aza)][dHyp](Carboxymethyl)N[Phe(4-COOH)][Trp(7-CN)][αMeS][Phe(4-CONH2)][Phe(4-COOH)][Sar][Trp(βS-Me,7-OMe)][X1][Nle])) |  |  | 0.06 | 0.6
CCCC[C@@H]1NC(=O)[C@@H]2CC[C@@H](C2)NC(=O)[C@H]([C@@H](C)c2c[nH]c3c(OC)cccc23)NC(=O)CN(C)C(=O)[C@H](Cc2ccc(C(=O)O)cc2)NC(=O)[C@H](Cc2ccc(C(N)=O)cc2)NC(=O)[C@](C)(CO)NC(=O)[C@H](Cc2c[nH]c3c(C#N)cccc23)NC(=O)[C@H](Cc2ccncc2)NC(=O)[C@H]([C@@H](O)C(N)=O)NC(=O)[C@H]2C[C@H](O)CN2C(=O)[C@H](Cc2c[nH]c3ccccc23)NC(=O)[C@@H]2CC[C@@H](O)CN2C(=O)[C@H](Cc2ccncc2)NC1=O [SEQ ID NO. 78] (cyclo([4Pal][Trp(7-CN)][αMeS][Phe(4-CONH2)][Phe(4-COOH)][Sar][Trp(βS-Me,7-OMe)][X1][Nle][4Pal][Pip(5R-OH)]W[dHyp][X60])) | 0.7 | 0.05 |  | 
CCCC[C@@H]1NC(=O)[C@@H]2CC[C@@H](C2)NC(=O)[C@H]([C@@H](C)c2c[nH]c3c(OC)cccc23)NC(=O)CN(C)C(=O)[C@H](Cc2ccc(C(=O)O)cc2)NC(=O)[C@H](Cc2ccc(C(N)=O)cc2)NC(=O)[C@](C)(CO)NC(=O)[C@H](Cc2c[nH]c3c(Cl)cccc23)NC(=O)[C@H](Cc2cnc(C(=O)O)nc2)NC(=O)[C@H](CC(N)=O)NC(=O)[C@H]2C[C@H](O)CN2C(=O)[C@H](Cc2c[nH]c3ccccc23)NC(=O)[C@@H]2CC[C@@H](O)CN2C(=O)[C@H](Cc2ccncc2)NC1=O [SEQ ID NO. 88] (cyclo([4Pal][Pip(5R-OH)]W[dHyp]N[Ala(2-carboxypyrimidin-5-yl)][Trp(7-Cl)][αMeS][Phe(4-CONH2)][Phe(4-COOH)][Sar][Trp(βS-Me,7-OMe)][X1][Nle])) | 1.9 | 0.2 |  | 
CCCC[C@@H]1NC(=O)[C@@H]2CC[C@@H](C2)NC(=O)[C@H]([C@@H](C)c2c[nH]c3c(OC)cccc23)NC(=O)CN(C)C(=O)[C@H](Cc2ccc(OCC(=O)O)cc2)NC(=O)[C@H](Cc2ccc(S(N)(=O)=O)cc2)NC(=O)[C@](C)(CO)NC(=O)[C@H](Cc2c[nH]c3c(C#N)cccc23)NC(=O)[C@H](Cc2ccc(OCC(=O)O)cc2)NC(=O)[C@H](CC(N)=O)NC(=O)[C@H]2C[C@H](OCC(=O)O)CN2C(=O)[C@H](Cc2n[nH]c3ncccc23)NC(=O)[C@@H]2CC[C@@H](O)CN2C(=O)[C@H](Cc2cncnc2)NC1=O [SEQ ID NO. 89] (cyclo([X1][Nle][Ala(pyrimidin-5-yl)][Pip(5R-OH)][X64][dHyp](Carboxymethyl)NY(Carboxymethyl)[Trp(7-CN)][αMeS][Phe(4-SO2NH2)]Y(Carboxymethyl)[Sar][Trp(βS-Me,7-OMe)])) | 1.2 | 0.18 |  | 
